The text below walks through data of patent publication US11090319B2, “Therapeutic uses of pharmaceutical compositions comprising cyclic boronic acid ester derivatives” (Melinta Subsidiary Corp., priority 2010, dated 2021).

In test [1] the test system is strains expressing class A ESBLs. Format: cell-based. As for the experimental part: Selected β-lactamase inhibitors were also tested for their ability to potentiate the monobactam tigemonam.
In test [2] the target is various β-lactamases (bacterial lysates) (Klebsiella pneumoniae, UniProt Q9F663, H272Y). The experiment in a line: biochemical. Type of test: biochemical.
Test [3] addresses various β-lactamases (bacterial lysates) (Pseudomonas aeruginosa, UniProt P14489). The test is described as follows: biochemical. Type of test: biochemical. To be noted: AZT IC50 KP1007 OXA-10.
Test [4] addresses various β-lactamases (bacterial lysates) (Salmonella typhimurium, UniProt P0A1V8). The test is described as follows: biochemical. Format: biochemical. The settings on record: AZT IC50 KPX1001 OXA-2.
For test [5], the target named is various β-lactamases (bacterial lysates) (Escherichia coli, UniProt A0A649V088). The test is described as follows: biochemical. Type of test: biochemical. To be noted: read-out: AZT IC50 KP1005 CTX-M-14.
The target in test [6] is various β-lactamases (bacterial lysates) (Klebsiella pneumoniae, UniProt Q9F663). The experiment in a line: biochemical. Format: biochemical.
The target of test [7] is various β-lactamases (bacterial lysates) (Escherichia coli, UniProt A0A5R8T042). The experiment in a line: biochemical. Type of test: biochemical. To be noted: read-out: AZT IC50 KP1009 CTX-M-15.
Setting [8] is: lysate KP1004 KPC-2, aztreonam cleavage, read-out: AZT IC50 KP1004 KPC-2 (converted).
Where [9] appears, read: lysate KP1008 KPC-2, aztreonam cleavage, read-out: AZT IC50 KP1008 KPC-2.

Structures are written as SMILES. Read-outs that look alike come from different tables or passages of the source.

various β-lactamases (bacterial lysates) (Salmonella typhimurium, UniProt P0A1V8), sequence (P0A1V8 22-275): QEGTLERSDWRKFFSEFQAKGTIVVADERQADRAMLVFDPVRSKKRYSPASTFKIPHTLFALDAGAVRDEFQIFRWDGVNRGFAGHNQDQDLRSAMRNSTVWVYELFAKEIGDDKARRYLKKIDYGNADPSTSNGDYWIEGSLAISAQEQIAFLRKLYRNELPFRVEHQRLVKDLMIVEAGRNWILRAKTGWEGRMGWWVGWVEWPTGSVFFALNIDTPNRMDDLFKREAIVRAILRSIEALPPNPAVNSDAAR
various β-lactamases (bacterial lysates) (Klebsiella pneumoniae, UniProt Q9F663, H272Y), sequence (Q9F663 whole entry H272Y, looked up): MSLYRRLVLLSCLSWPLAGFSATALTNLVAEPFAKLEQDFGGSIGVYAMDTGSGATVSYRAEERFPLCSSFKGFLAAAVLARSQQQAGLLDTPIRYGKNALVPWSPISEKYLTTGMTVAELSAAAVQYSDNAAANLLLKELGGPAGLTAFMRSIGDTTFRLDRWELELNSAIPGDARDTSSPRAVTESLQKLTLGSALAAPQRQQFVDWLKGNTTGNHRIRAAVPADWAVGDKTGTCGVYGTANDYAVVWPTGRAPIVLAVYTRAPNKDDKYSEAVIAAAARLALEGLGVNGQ
various β-lactamases (bacterial lysates) (Escherichia coli, UniProt A0A5R8T042), sequence (A0A5R8T042 29-291): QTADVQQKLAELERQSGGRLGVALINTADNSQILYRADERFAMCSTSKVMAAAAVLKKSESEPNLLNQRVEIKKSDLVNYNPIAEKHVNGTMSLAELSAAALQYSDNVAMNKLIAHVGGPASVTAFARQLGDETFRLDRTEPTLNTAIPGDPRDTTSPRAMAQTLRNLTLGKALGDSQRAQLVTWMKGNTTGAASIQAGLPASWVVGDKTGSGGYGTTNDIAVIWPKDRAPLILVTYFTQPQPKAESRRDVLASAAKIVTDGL
various β-lactamases (bacterial lysates) (Klebsiella pneumoniae, UniProt Q9F663), sequence (Q9F663 whole entry, looked up): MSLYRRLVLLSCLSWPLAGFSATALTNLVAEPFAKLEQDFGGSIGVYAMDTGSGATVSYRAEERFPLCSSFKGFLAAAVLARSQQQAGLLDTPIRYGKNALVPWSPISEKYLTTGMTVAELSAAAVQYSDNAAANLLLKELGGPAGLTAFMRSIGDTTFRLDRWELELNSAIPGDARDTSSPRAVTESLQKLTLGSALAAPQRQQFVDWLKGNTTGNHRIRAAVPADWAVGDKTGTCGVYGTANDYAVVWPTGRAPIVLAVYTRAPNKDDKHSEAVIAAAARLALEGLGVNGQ
various β-lactamases (bacterial lysates) (Escherichia coli, UniProt A0A649V088), sequence (A0A649V088 29-291): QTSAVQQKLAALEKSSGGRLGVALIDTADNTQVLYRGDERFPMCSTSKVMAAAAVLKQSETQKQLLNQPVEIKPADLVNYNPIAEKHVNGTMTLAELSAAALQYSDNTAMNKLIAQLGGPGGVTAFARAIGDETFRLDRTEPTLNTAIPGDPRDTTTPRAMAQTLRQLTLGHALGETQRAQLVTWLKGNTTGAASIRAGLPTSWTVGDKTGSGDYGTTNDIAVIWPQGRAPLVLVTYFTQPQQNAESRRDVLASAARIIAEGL
various β-lactamases (bacterial lysates) (Pseudomonas aeruginosa, UniProt P14489), sequence (P14489 20-266): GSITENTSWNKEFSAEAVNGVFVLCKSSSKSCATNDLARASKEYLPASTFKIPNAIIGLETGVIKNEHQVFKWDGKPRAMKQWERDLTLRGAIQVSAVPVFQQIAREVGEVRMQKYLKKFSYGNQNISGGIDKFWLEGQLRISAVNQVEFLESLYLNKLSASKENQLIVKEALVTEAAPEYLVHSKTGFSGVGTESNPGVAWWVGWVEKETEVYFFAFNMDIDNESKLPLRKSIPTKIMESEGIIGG

One may read the IC50 as the midpoint of a concentration-inhibition curve. Regarding `O=C(O)[C@H]1/C(=C/CO)O[C@@H]2CC(=O)N21` [Clavulanic Acid, reference compound], in test [1], the “MPC4 CTX-M-14 KP1005” value was found to be 2.5 µg/mL, the “MPC4 CTX-M-15 KP1009” value was 1.25 µg/mL, the “MPC4 SHV-5 ec308” value was “<=0.6 μg/mL” and the “MPC4 SHV-12 KP1010” value is “<=0.6 μg/mL”. For the same compound, in test [1], the “MPC4 SHV-18 KP1012” value was “<=0.6 μg/mL”, the “MPC4 TEM-10 EC1009” value is “<=0.6 μg/mL”, the “MPC4 TEM-10 ec302” value was 2.5 µg/mL and the “MPC4 TEM-26 ec304” value is “<=0.6 μg/mL”. This compound also gave an IC50 in test [2] of 7.43 µM. In test [3], this compound gave an IC50 of 7.43 µM. 0.402 µM corresponded to half-maximal inhibition in test [4] (IC50). For the same compound, in test [5], the IC50 was 0.275 µM. This compound also had an IC50 in test [6] (AZT IC50 KP1004 KPC-2) of 3.72 µM. Moreover, the midpoint of inhibition in test [6] (AZT IC50 KP1008 KPC-2), the IC50, lay at 11.1 µM. The IC50 in test [7] is 1.24 µM.
For the compound `O=C(O)C[C@@H]1CC[C@H](NC(=O)[C@H]2Cc3ccccc3CN2)B(O)O1` [Compound 46, 2-((3R,6S)-2-hydroxy-3-((R)-1,2,3,4-tetrahydroisoquinoline-3-carboxamido)-1,2-oxaborinan-6-yl)acetic acid], the half-inhibitory concentration (IC50) was less than 1.51 µM in test [2]; greater than 6.02 µM in test [3]; greater than 6.02 µM in test [4]; greater than 6.02 µM in test [5]; less than 1.51 µM in test [6] (setting [8]); less than 1.51 µM in test [6] (setting [9]). For the same compound, the IC50 in test [7] was greater than 6.02 µM.
For the compound `N=C(N)NCCC[C@@H](N)C(=O)N[C@H]1CC[C@@H](CC(=O)O)OB1O` [Compound 47, 2-((3R,6S)-3-((R)-2-amino-5-guanidinopentanamido)-2-hydroxy-1,2-oxaborinan-6-yl)acetic acid], the IC50 was less than 1.52 µM in test [2]; greater than 6.08 µM in test [3]; greater than 6.08 µM in test [4]; greater than 6.08 µM in test [5]; 1.52 to 6.08 µM in test [6] (setting [8]); 1.52 to 6.08 µM in test [6] (setting [9]). Also, the IC50 in test [7] was greater than 6.08 µM.
As for `O=C(O)C[C@@H]1CC[C@H](NC(=O)Cc2ccncc2)B(O)O1` [Compound 49, 2-((3R,6S)-2-hydroxy-3-(2-(pyridin-4-yl)acetamido)-1,2-oxaborinan-6-yl)acetic acid], the IC50 in test [2] was less than 1.71 µM; in test [3], greater than 6.85 µM; in test [4] it was 1.71 to 6.85 µM; in test [5], 1.71 to 6.85 µM; in test [6] (setting [8]) it was less than 1.71 µM; in test [6] (setting [9]) it was less than 1.71 µM. Besides, in test [7], the IC50 was greater than 6.85 µM.
For `N[C@H]1CC[C@@H](CC(=O)N[C@H]2CC[C@@H](CC(=O)O)OB2O)CC1` [Compound 50, 2-((3R,6S)-3-(2-(4-aminocyclohexyl)acetamido)-2-hydroxy-1,2-oxaborinan-6-yl)acetic acid], the IC50 in test [2] was less than 1.6 µM; in test [3], greater than 6.41 µM; in test [4] it was greater than 6.41 µM; in test [5], 1.6 to 6.41 µM; in test [6] (setting [8]) it was less than 1.6 µM; in test [6] (setting [9]) it was less than 1.6 µM. Further, the IC50 in test [7] was greater than 6.41 µM.
Regarding `O=C(O)C[C@@H]1CC[C@H](NC(=O)C[C@H]2CCCCN2)B(O)O1` [Compound 52, 2-((3R,6S)-2-hydroxy-3-(2-((R)-piperidin-2-yl)acetamido)-1,2-oxaborinan-6-yl)acetic acid], the IC50 in test [2] is 1.68 to 6.71 µM; in test [3], greater than 6.71 µM; in test [4], greater than 6.71 µM; in test [5], greater than 6.71 µM; in test [6] (setting [8]), less than 1.68 µM; in test [6] (setting [9]) it was 1.68 to 6.71 µM. The IC50 in test [7] was greater than 6.71 µM.
For `O=C(O)C[C@@H]1CC[C@H](NC(=O)C[C@@H]2CCCCN2)B(O)O1` [Compound 53, 2-((3R,6S)-2-hydroxy-3-(2-((S)-piperidin-2-yl)acetamido)-1,2-oxaborinan-6-yl)acetic acid], the IC50 in test [2] is 1.68 to 6.71 µM; in test [3] it was greater than 6.71 µM; in test [4] it was 1.68 to 6.71 µM; in test [5], greater than 6.71 µM; in test [6] (setting [8]), less than 1.68 µM; in test [6] (setting [9]), 1.68 to 6.71 µM. Besides, the IC50 in test [7] is greater than 6.71 µM.
Take `Cc1nc2ccccc2n1CCC(=O)N[C@H]1CC[C@@H](CC(=O)O)OB1O` [Compound 55, 2-((3R,6S)-2-hydroxy-3-(3-(2-methyl-1H-benzo[d]imidazol-1-yl)propanamido)-1,2-oxaborinan-6-yl)acetic acid]: the IC50 in test [2] is less than 1.39 µM; in test [3], greater than 5.57 µM; in test [4], 1.39 to 5.57 µM; in test [5], 1.39 to 5.57 µM; in test [6] (setting [8]) it was less than 1.39 µM; in test [6] (setting [9]), less than 1.39 µM. Also, the IC50 in test [7] was greater than 5.57 µM.
Consider `O=C(O)C[C@@H]1CC[C@H](NC(=O)c2ccc(Cn3cnnn3)cc2)B(O)O1` [Compound 56, 2-((3R,6S)-3-(4-((1H-tetrazol-1-yl)methyl)benzamido)-2-hydroxy-1,2-oxaborinan-6-yl)acetic acid], for which the IC50 in test [2] is less than 1.39 µM; in test [3], greater than 5.57 µM; in test [4], 1.39 to 5.57 µM; in test [5] it was less than 1.39 µM; in test [6] (setting [8]), less than 1.39 µM; in test [6] (setting [9]), less than 1.39 µM. In test [7], the IC50 was 1.39 to 5.57 µM.
On to `O=C(O)C[C@@H]1CC[C@H](NC(=O)Cc2ccccn2)B(O)O1` [Compound 57, 2-((3R,6S)-2-hydroxy-3-(2-(pyridin-2-yl)acetamido)-1,2-oxaborinan-6-yl)acetic acid], for which the IC50 in test [2] was less than 1.71 µM; in test [3], greater than 6.85 µM; in test [4], greater than 6.85 µM; in test [5], less than 1.71 µM; in test [6] (setting [8]) it was less than 1.71 µM; in test [6] (setting [9]), less than 1.71 µM. Moreover, the IC50 in test [7] is greater than 6.85 µM.
`O=C(O)C[C@@H]1CC[C@H](NC(=O)c2cn(C3CC3)c3cc(N4CCNCC4)c(F)cc3c2=O)B(O)O1` [Compound 58, 2-((3R,6S)-3-(1-cyclopropyl-6-fluoro-4-oxo-7-(piperazin-1-yl)-1,4-dihydroquinoline-3-carboxamido)-2-hydroxy-1,2-oxaborinan-6-yl)acetic acid]: the IC50 in test [2] is less than 1.03 µM; in test [3], greater than 4.11 µM; in test [4], greater than 4.11 µM; in test [5], 1.03 to 4.11 µM; in test [6] (setting [8]), less than 1.03 µM; in test [6] (setting [9]), less than 1.03 µM. Moreover, the IC50 in test [7] is greater than 4.11 µM.
For `C[C@]1(Cn2ccnn2)[C@H](C(=O)N[C@H]2CC[C@@H](CC(=O)O)OB2O)N2C(=O)C[C@H]2S1(=O)=O` [Compound 59, 2-[(3R,6S)-2-hydroxy-3-[(2S,3 S,5R)-3-methyl-4,4,7-trioxo-3-(1H-1,2,3-triazol-1-ylmethyl)-4λ^6-thia-1-azabicyclo[3.2.0]heptane-2-amido]-1,2-oxaborinan-6-yl]acetic acid], the IC50 in test [2] was 1.1 to 4.39 µM; in test [3], greater than 4.39 µM; in test [4], 1.1 to 4.39 µM; in test [5] it was greater than 4.39 µM; in test [6] (setting [8]), 1.1 to 4.39 µM; in test [6] (setting [9]), less than 1.1 µM. The IC50 in test [7] is greater than 4.39 µM.
Turning to `O=C(O)C[C@@H]1CC[C@H](NC(=O)CCc2nnc(-c3ccccc3)o2)B(O)O1` [Compound 60, 2-((3R,6S)-2-hydroxy-3-(3-(5-phenyl-1,3,4-oxadiazol-2-yl)propanamido)-1,2-oxaborinan-6-yl)acetic acid], the IC50 is less than 1.34 µM in test [2]; greater than 5.36 µM in test [3]; 1.34 to 5.36 µM in test [4]; 1.34 to 5.36 µM in test [5]; less than 1.34 µM in test [6] (setting [8]); less than 1.34 µM in test [6] (setting [9]). Also, in test [7], the IC50 lay within 1.34 to 5.36 µM.
Consider `Nc1cc(CC(=O)N[C@H]2CC[C@@H](CC(=O)O)OB2O)ccn1` [Compound 61, 2-((3R,6S)-3-(2-(2-aminopyridin-4-yl)acetamido)-2-hydroxy-1,2-oxaborinan-6-yl)acetic acid], for which the IC50 in test [2] is less than 1.63 µM; in test [3] it was greater than 6.51 µM; in test [4], 1.63 to 6.51 µM; in test [5], 1.63 to 6.51 µM; in test [6] (setting [8]), less than 1.63 µM; in test [6] (setting [9]) it was less than 1.63 µM. Further, the IC50 in test [7] is greater than 6.51 µM.
As to `CCOC(=O)C[C@@H]1CC[C@H](NC(=O)Cc2cccs2)B(O)O1` [Compound 65, ethyl 2-((3R,6S)-2-hydroxy-3-(2-(thiophen-2-yl)acetamido)-1,2-oxaborinan-6-yl)acetate], the IC50 in test [2] is greater than 6.15 µM; in test [3], greater than 6.15 µM; in test [4], 1.54 to 6.15 µM; in test [5] it was 1.54 to 6.15 µM; in test [6] (setting [8]), 1.54 to 6.15 µM; in test [6] (setting [9]), 1.54 to 6.15 µM. In test [7], the IC50 was greater than 6.15 µM.
`O=C(O)C[C@@H]1CC[C@H](NC(=O)Cc2cc(F)cc(F)c2)B(O)O1` [Compound 66, 2-((3R,6S)-3-(2-(3,5-difluorophenyl)acetamido)-2-hydroxy-1,2-oxaborinan-6-yl)acetic acid]: the IC50 is less than 1.53 µM in test [2]; greater than 6.11 µM in test [3]; less than 1.53 µM in test [4]; 1.53 to 6.11 µM in test [5]; less than 1.53 µM in test [6] (setting [8]); less than 1.53 µM in test [6] (setting [9]). For the same compound, the IC50 in test [7] is greater than 6.11 µM.
